pIC50: −log10 of the molar value.
How the values were obtained:
Assay type in all cases: biochemical
[1] = molecular target: T1, PI3Kdelta (Homo sapiens, UniProt O00329); test: PI3K KinaseGlo assay, PI3Kdelta; conditions: 1 μM ATP, 10 nM enzyme, 30 mins
T1 construct: for the full-length p110δ subunit were generated and fused by overlapping PCR; His tag (C); made in house; host or cells: baculovirus / Tn5 insect cells

[2] = molecular target: T2, PI3Kgamma (Homo sapiens, UniProt P48736, Q459R); test: PI3K KinaseGlo assay, PI3Kgamma; conditions: 1 μM ATP, 150 nM enzyme, 90 mins
T2 construct: Constructs lacking the N-terminal 144 aa; His6 (C); made in house; host or cells: Tn5 insect cells; construct from Roger Williams lab (MRC LMB)
Description: PI3K KinaseGlo assay: […] of compound dilutions were dispensed onto black 384-well low volume Non Binding Styrene (NBS) plates (Costar Cat. No. NBS#3676). L-a-phosphatidylinositol (PI), provided as 10 mg/ml solution in methanol, was transferred into a glass tube and dried under nitrogen beam. It was then resuspended in 3% OctylGlucoside (OG) by vortexing and stored at 4° C. The KinaseGlo Luminescent Kinase Assay (Promega, Madison/WI, USA) is a homogeneous HTS method of measuring kinase activity by quantifying the amount of ATP remaining in solution following a kinase reaction.
5 μL of a mix of PI/OG with the PI3K subtype were added (Table 1). Kinase reactions were started by addition of 5 μl of ATP-mix containing in a final volume 10 μL 10 mM TRIS-HCl pH 7.5, 3 mM MgCl2, 50 mM NaCl, 0.05% CHAPS, 1 mM DTT and 1 μM ATP, and occurred at room temperature. Reactions were stopped with 10 μl of KinaseGlo and plates were read 10 mins later in a Synergy2 reader using an integration time of 0.1 seconds per well. […] The standard was used as a reference compound and included in all assay plates in the form of 16 dilution points in duplicate.
The PI3Kα, PI3Kβ and PI3Kδ constructs are fusion of p85α iSH2 domain and the respective p110 isoforms. The p85α fragment and p110 isoform genes were generated by PCR from first strand cDNA generated by RT-PCR from commercial RNA from placenta, testis and brain as described below. […]
The lysate was centrifuged at 45,000 g for 30 minutes, and the supernatant was loaded onto a pre-equilibrated IMAC column (3 mL resin/100 mL lysate). […] Pertinent fractions were analyzed by SDS-PAGE and pooled accordingly. […] Pertinent fractions were analyzed by SDS-PAGE and pooled accordingly. […]

[3] = molecular target: T3, PI3Kalpha (Homo sapiens, UniProt P42336); test: PI3K KinaseGlo assay, PI3Kalpha; conditions: 1 μM ATP, 10 nM enzyme, 30 mins
T3 construct: His6 (C); made in house; host or cells: baculovirus / Tn5 insect cells

[4] = molecular target: T4, PI3Kbeta (Homo sapiens, UniProt P42338); test: PI3K KinaseGlo assay, PI3Kbeta; conditions: 1 μM ATP, 25 nM enzyme, 30 mins
T4 construct: p85α iSH2 domain (fusion partner); His tag (C); made in house; host or cells: baculovirus / Tn5 insect cells
T4 sequence (P42338 with tags, fused parts or gaps limits assumed): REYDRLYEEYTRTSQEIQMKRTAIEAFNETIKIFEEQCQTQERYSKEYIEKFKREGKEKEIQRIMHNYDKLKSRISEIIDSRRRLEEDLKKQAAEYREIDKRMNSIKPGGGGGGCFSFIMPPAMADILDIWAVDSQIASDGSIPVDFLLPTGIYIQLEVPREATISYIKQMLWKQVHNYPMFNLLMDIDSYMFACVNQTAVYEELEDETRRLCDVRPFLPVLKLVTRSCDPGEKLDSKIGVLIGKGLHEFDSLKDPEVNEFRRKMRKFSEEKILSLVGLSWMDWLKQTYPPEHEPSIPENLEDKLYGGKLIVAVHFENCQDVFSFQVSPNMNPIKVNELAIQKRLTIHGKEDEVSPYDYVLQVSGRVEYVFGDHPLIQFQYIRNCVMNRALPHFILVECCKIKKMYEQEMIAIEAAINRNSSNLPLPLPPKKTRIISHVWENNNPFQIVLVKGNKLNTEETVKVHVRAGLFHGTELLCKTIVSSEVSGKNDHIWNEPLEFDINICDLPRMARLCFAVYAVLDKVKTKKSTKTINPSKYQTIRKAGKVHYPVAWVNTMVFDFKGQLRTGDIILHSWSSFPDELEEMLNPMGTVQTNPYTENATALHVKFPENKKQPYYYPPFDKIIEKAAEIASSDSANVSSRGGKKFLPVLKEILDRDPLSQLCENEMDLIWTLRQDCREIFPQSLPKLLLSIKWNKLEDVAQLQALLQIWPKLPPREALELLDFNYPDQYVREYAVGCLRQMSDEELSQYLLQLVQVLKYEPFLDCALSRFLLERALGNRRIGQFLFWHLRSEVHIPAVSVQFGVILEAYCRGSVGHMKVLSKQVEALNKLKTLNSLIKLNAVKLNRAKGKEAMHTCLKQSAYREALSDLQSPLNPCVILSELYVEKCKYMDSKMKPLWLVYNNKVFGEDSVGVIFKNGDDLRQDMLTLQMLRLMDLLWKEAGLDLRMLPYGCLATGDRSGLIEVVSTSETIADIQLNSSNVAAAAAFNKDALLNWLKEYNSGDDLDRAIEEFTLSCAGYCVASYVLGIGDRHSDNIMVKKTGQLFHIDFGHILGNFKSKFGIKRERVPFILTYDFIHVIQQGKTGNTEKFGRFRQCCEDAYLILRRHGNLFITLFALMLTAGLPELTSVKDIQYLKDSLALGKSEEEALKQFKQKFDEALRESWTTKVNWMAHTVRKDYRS

T1 sequence (O00329 with tags, fused parts or gaps): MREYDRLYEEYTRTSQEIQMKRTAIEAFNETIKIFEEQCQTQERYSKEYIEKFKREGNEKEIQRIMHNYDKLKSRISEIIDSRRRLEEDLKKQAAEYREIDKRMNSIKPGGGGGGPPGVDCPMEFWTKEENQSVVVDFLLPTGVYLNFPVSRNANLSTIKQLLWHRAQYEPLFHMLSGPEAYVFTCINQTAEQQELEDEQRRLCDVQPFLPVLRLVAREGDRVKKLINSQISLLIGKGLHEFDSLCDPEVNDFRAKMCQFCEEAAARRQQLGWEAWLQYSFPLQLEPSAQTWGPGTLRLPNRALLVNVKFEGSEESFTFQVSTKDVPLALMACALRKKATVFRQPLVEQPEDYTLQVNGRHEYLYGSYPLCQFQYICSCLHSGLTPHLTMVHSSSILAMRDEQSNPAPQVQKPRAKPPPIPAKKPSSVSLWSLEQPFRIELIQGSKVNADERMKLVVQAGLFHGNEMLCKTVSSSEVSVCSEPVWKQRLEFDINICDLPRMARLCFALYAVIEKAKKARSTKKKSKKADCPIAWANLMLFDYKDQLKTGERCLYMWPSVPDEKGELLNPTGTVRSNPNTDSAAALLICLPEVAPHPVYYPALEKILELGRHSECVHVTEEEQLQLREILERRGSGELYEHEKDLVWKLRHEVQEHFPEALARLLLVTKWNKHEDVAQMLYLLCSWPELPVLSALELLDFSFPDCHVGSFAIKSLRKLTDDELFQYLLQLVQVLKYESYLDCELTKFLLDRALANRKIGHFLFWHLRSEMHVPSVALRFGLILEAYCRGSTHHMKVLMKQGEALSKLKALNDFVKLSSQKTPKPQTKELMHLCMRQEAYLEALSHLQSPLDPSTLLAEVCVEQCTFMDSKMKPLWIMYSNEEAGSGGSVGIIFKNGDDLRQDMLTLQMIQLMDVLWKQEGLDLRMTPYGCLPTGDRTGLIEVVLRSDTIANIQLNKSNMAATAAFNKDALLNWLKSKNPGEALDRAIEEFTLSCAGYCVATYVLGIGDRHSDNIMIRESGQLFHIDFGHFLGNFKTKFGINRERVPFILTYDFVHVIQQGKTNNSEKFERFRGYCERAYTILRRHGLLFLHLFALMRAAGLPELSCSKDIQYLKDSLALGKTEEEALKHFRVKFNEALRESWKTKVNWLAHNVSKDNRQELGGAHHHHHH
T2 sequence (P48736 with tags, fused parts or gaps Q459R): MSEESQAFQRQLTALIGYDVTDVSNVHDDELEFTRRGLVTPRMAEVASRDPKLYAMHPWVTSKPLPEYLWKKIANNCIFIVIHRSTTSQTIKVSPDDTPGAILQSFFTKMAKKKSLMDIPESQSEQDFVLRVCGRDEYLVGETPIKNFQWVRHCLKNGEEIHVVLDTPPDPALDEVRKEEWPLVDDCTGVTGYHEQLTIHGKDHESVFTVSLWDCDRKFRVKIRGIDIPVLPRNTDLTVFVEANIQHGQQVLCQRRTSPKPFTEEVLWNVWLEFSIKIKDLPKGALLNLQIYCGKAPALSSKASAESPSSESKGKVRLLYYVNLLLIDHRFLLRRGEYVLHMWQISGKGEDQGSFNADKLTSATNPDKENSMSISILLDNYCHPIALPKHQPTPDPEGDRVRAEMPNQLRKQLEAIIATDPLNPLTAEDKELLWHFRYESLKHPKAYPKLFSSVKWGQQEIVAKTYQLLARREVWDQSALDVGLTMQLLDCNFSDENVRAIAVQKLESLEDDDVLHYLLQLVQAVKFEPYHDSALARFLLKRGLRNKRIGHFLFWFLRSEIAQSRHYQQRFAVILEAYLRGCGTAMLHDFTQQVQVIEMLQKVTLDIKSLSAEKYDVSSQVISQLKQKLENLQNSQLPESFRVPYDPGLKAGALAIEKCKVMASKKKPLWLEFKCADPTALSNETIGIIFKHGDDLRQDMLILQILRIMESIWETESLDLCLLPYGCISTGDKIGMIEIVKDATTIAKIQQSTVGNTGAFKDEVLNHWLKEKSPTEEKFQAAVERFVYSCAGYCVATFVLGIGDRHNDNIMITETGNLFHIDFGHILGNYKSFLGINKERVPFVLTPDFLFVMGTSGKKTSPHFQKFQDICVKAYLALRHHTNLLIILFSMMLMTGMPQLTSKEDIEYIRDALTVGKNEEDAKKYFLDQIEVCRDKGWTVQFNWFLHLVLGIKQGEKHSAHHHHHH
T3 sequence (P42336 with tags, fused parts or gaps): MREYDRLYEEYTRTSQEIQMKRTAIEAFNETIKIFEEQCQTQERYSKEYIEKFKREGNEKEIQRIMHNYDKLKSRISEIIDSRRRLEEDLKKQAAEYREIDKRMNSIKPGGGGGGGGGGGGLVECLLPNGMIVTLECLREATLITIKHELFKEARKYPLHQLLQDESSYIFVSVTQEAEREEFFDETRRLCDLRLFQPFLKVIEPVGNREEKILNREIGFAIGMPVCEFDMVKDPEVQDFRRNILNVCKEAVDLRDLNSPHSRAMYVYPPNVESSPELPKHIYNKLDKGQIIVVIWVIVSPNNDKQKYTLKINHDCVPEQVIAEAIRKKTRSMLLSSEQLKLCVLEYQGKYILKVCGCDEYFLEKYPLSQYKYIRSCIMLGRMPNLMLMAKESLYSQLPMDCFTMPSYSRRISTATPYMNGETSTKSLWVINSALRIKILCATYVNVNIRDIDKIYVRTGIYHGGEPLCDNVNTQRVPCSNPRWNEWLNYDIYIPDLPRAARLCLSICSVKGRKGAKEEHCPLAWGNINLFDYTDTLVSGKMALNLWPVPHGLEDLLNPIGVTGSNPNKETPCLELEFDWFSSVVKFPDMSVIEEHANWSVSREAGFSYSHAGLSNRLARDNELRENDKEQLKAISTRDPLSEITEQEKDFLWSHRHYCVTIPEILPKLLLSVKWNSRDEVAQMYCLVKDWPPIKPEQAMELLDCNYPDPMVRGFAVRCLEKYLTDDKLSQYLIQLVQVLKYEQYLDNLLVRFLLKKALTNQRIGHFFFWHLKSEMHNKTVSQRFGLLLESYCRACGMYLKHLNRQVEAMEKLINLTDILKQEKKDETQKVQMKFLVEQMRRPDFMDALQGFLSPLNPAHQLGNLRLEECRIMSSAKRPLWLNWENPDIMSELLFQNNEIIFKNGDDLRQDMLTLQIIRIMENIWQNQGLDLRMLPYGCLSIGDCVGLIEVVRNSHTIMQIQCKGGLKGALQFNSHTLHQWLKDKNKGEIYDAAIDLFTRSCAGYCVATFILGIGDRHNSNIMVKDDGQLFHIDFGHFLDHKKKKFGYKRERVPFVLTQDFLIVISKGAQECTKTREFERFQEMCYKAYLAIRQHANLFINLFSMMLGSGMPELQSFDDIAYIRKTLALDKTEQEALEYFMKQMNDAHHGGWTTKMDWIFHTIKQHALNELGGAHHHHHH

| pIC50 [1] | pIC50 [2] | pIC50 [3] | pIC50 [4] | Compound |
| --- | --- | --- | --- | --- |
| 5.90 | 6.03 | 7.11 | 6.05 | Cc1nc(NC(=O)N2CCC[C@@]2(C)C(N)=O)sc1-c1csc(CC2CC2)n1 [Example 49, (S)-2-Methyl-pyrrolidine-1,2-dicarboxylic acid 2-amide 1-[(2-cyclopropylmethyl-4′-methyl-[4,5]bithiazolyl-2′-yl)-amide]] |
| 6.21 | 5.60 | 7.27 | 5.16 | Cc1nc(NC(=O)N2CCC2C(N)=O)sc1-c1csc(C(C)(C)C)n1 (stereo not drawn) [Example 13, Azetidine-1,2-dicarboxylic acid 2-amide 1-[(2-tert-butyl-4′-methyl-[4,5]bithiazolyl-2′-yl)-amide]] |

| Compound | pIC50 [1] | pIC50 [2] | pIC50 [3] | pIC50 [4] |
| --- | --- | --- | --- | --- |
| Cc1nc(NC(=O)N2CCC[C@H]2C(N)=O)sc1-c1csc(N2CC3CCC(CC3)C2)n1 [Example 23, (S)-Pyrrolidine-1,2-dicarboxylic acid 2-amide 1-{[2-(3-aza-bicyclo[3.2.2]non-3-yl)-4′-methyl-[4,5]bithiazolyl-2′-yl]-amide}] | 5.63 | 5.79 | 6.48 | 5.07 |

Reference: patent US20100298286A1, “Organic Compounds” (NOVARTIS AG, priority 2007, published 2010)
